How the values were obtained:
allogeneic skin grafts [1] = assay: Trial I, skin graft survival test in rats (recipient Long Evans, donor Lewis), vs azathioprine + methylprednisolone; format: in vivo
Protocol: As suspension freshly prepared
before each administration
Route of Intragastric via stomach tube,
suspended in 0.8% Methocel
(§4) Volume: 0.01 ml per gram body weight and dose
Trial I/from Day -3 before grafting to Day +6
Trial I/10 mg/kg over 6 days, afterwards 5 mg/kg
(§5) Two allogeneic skin grafts from a donor rat are transferred to a receiving rat from an unrelated inbred strain. The panniculus carnosus attached to the graft may either be removed by dissection (suprapannicular graft) or be left on the graft (subpannicular graft). Grafting is conducted on Day 0 under light ether narcosis subsequent to shaving and cleanup of the grafting sites. The grafts are fixed on the graft receptor sites by dressing with a suitable bandage. From Day +9 a protective colar is placed on the animals, the bandage removed, and the status of the grafts daily controlled. The assessment of the graft function is conducted by means of a graduation scale, which allows for differentiation of rejection corresponding to a three-degree of severity score. The trial ends on the day when 50% of the animals of one group have rejected both grafts. The lengthening of the graft survival time in comparison to the controls is determined in days.
Recipient: Long Evans .male., Donor: Lewis .male.. Two suprapannicular grafts were transferred from a donor to a recipient.

allogeneic skin grafts [2] = assay: Trial II, skin graft survival test in rats (recipient Osborne Mendel, donor Lewis), vs azathioprine; format: in vivo; settings: far smaller quantities of Substance A
Protocol: As suspension freshly prepared
before each administration
Route of Intragastric via stomach tube,
suspended in 0.8% Methocel
as §4
Trial II/from Day -2 before grafting to Day +9
Trial II/4-8 mg/kg daily increasing over 12 days
as §5
Recipient: Osborne Mendel .male., Donor: Lewis .male.. Two suprapannicular grafts were transferred from a donor to a recipient.

Electro-convulsion = assay: Maximal electroconvulsion test; format: in vivo; settings: Mus musculus, po; i.g., mice
BN leukemia = BN leukemia (CCLS test); format: in vivo, mice; settings: for % T/C: IV PO
Text: (§1) The two types of assays used were the standard CCTM test for solid tumors and the CCLS test for leukemia.
The CCLS assay assesses the antitumor activity of a test agent by measurement of the treatment-induced increase in host lifespan. Only rapidly growing tumors that kill their respective hosts in less than 30 days are appropriate for life span assays.
Test animals are appropriate Fl hybrid mice derived for the inbred strain of tumor origin. After the required mice are randomized, they receive implants (IP, IV, IC, IM, or SC) of appropriately diluted ascites fluid or dilutions of tumor brei on Day 0. A sample from the final inocula is incubated in thioglycolate media as a check for gross contamination of the tumor material. After tumor inoculation, the test mice are rerandomized and distributed to test groups as per the specific test protocol.
(§2) Test agents are dissolved or suspended in any of several vehicles and are administered by the routes and treatment schedules specified on the test protocol. All animals are monitored for signs of acute toxicity and side effects.
Survival is checked daily for each test group. Both the number dead and the number living are counted and recorded. All dead mice are autopsied to ascertain the probably cause of death (drug or tumor). Clinical signs are observed and recorded for all test groups. Group body weights are recorded at least weekly as directed in the specific test protocol.
For most life span assays, any animal surviving more than 60 days is sacrificed and autopsied to determine the tumor burden present. It is possible that specific protocols involving unusual tumors or routes of tumor implantation will call for longer termination dates.
Td=tumor volume doubling time (days), calculated from the slope of a log-linear least square fit of the survival time vs inoculum curve for titrated inocula of tumor cells in untreated mice.
MLS=median life span, calculated by a method appropriate for grouped observations.
NOTE: Some adjustments in these calculations are made to make comparisons with the appropriate control cage more accurate. The slope of the titration curve (least squares fit) is used to calculate the Td for the tumor, but the life span increases of the treated animals are based only on the MLS of the control cage with the same initial inoculum (not on the least square approximation from the titration curve). This in theory reduces any effects from dilution, etc.
All tumor-free survivors (cures) are excluded from the calculation of MLS and cell kill values. Thus all calculated end points represent the response of the treatment failures.

[3] = tested on: MNU-induced rat mammary tumor; assay: MNU-induced mammary tumor (CCTR); format: in vivo; settings: for % T/C / Rating: PO, 4 times daily, Days 1-5 for 5 weeks
Text: (§3) Doses just under the acutely lethal dose can be given indefinitely (for more than 30 days), during which the treated animals regain their initial weight loss.

[4] = tested on: HCT-8 human colon xenograft; assay: HCT-8 human colon xenograft in nude mice (CCTM test); format: in vivo
Text: as §3, §1
The CCTM assay assesses the antitumor activity of a test agent by measurement of the treatment-induced delay of tumor growth. Tumor growth delay is used because, unlike T/C type assays, the measured parameter is […].
Test animals are Fl hybrid mice derived from the inbred strain of tumor origin. […]
as §2
Survival is checked daily for each test group. Both the number dead and the number living are counted and recorded. […] Clinical signs are observed and recorded for all test groups. Individual body weights are recorded at least weekly as directed in the specific test protocol. Each tumor is measured with calipers as per the protocol (usually two to three times/week). […]
Td=tumor volume doubling time (days), calculated from the slope of a long-linear least squares fit of the growth curve between 63 and 1000 mg for each control tumor. […]

[5] = tested on: peripheral leukocytes and lymphocytes; assay: Influence on peripheral leukocytes and lymphocytes in rhesus monkeys; format: in vivo; settings: 1× daily 10 mg/kg i.g.
Protocol: Dosage: 1×daily 10 mg/kg i.g.
FIG. 1: Rhesus monkey ZE, .female.
FIG. 2: Rhesus monkey YL, .female.

humoral immunoresistance = assay: Susceptibility to bacterial infections in treated rats; format: in vivo; settings: sustained period, high doses
Text: An inhibition of the humoral immune system (antibody-producing B-lymphocytes) by the substances of the invention and a possibility of therapy resulting from this, e.g., for autoaggression diseases, which are characterized by an increase in antibody production against the body's own tissues, can currently only be concluded indirectly.

[6] = tested on: murine tumors and human tumor xenografts; assay: Antineoplastic activity in tumor-carrying animals, general statements; format: in vivo, mice
in vivo = settings: mouse, po
[7] = intragastric / oral, vs untreated control

Nc1ccc(C(=O)Nc2ccccc2N)cc1 [Substance A, 4-Amino-N-(2'-aminophenyl)-benzamide]
effect compared with standard medication (allogeneic skin grafts [1]; Trial I, vs azathioprine and methylprednisolone): superior to an immunosuppressive standard medication comprising azathioprine and methylprednisolone
effect compared with comparison medication (allogeneic skin grafts [1]; rats, both trials, far smaller substance quantities): at least equally as effective as the comparison medication
effect compared with standard azathioprine (allogeneic skin grafts [2]): equally effective as the immunosuppressive standard azathioprine
ED50 (Electro-convulsion): 30 mg/kg
anticancer activity (BN leukemia; BN leukemia): significant anticancer activity has been demonstrated and confirmed
% T/C (BN leukemia; Days 1-5, 20 mg/kg): 356%
% T/C (BN leukemia; Days 1-5, 30 mg/kg): 430%
% T/C (BN leukemia; Days 7-11, 14-18, 20 mg/kg): 335%
% T/C (BN leukemia; Days 7-11, 14-18, 21-25, 20 mg/kg): 474%
% T/C (BN leukemia; Days 7-11, 14-18, 21-25, 28-32, 35-39, 8 mg/kg): 343%
anticancer activity ([3]; MNU-induced rat mammary tumor): significant anticancer activity has been demonstrated and confirmed
% T/C ([3]; 7.5 mg/kg): 3.5%
Rating ([3]; 7.5 mg/kg): AA (≤10% T/C High Activity)
% T/C ([3]; 10 mg/kg): 7.8%
Rating ([3]; 10 mg/kg): AA (≤10% T/C High Activity)
anticancer activity ([4]; HCT-8 human colon tumor xenograft): significant anticancer activity has been demonstrated and confirmed
(T-C) tumor growth delay ([4]; SC PO, Days 9-24, 69 mg/kg): 13 days
reduction of the peripheral lymphocytes [5]: simultaneous distinct reduction of the peripheral lymphocytes
susceptibility to bacterial infections (humoral immunoresistance): increased susceptibility to bacterial infections
tumor regression late in an extended treatment regimen ([6]; after just two days' rest): partial regression of tumors
average survival time of tumor-carrying mice [6, 7]: significant increase in the average survival time
retardation in tumor growth [6, 7]: distinct retardation in the growth of the tumor
schedule dependence of activity ([6]; mouse, in vivo): schedule-dependent, with once daily treatment superior to either more highly fractionated or to intermittent regimens
cures and cell kills ([6]; oral, refractory tumor models in mice): significant number of cures and cell kills
anticancer activity, overall ([6]; spectrum of preclinical tumor models): significant activity against a spectrum of preclinical tumor models
LD50 at 168 h (in vivo): 625 mg/kg

Source: patent US4933368A, “N-phenylbenzamide derivatives” (Godecke Aktiengesellschaft, priority 1983, dated 1990)
